Measured values: patent US9695155B2, “Herbicidal substituted pyrimidinyloxy benzene compounds” (E. I. DU PONT DE NEMOURS AND COMPANY, priority 2013, dated 2017)

Key:
ragweed [1] = experiment: Test A postemergence; type: in vivo, Ambrosia elatior; conditions: for Plant response rating, Ragweed: 0 to 100 scale, 0 no effect, 100 complete control; for Ragweed plant response rating: 0 to 100 scale where 0 is no effect and 100 is complete control
Summary of the method: (§1)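 Greenhouse pot test, loam/sand soil. Formulation: non-phytotoxic solvent mix plus surfactant. Pre: directed spray onto soil after sowing. Post: plants at 1–2 leaf, 2–10 cm. Rated visually vs untreated controls at ~10 d, 0 (no effect) to 100 (complete control).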

Italian ryegrass [2] = experiment: Test A preemergence; type: in vivo, Lolium multiflorum; conditions: for Plant response rating, Ryegrass, Italian: 0 to 100 scale where 0 is no effect and 100 is complete control
Summary of the method: as §1

giant foxtail [3] = experiment: Test A postemergence; type: in vivo, Setaria faberii; conditions: for Plant response rating, Foxtail, Giant: 0 to 100 scale, 0 no effect, 100 complete control; for Foxtail, Giant plant response rating: 0 to 100 scale where 0 is no effect and 100 is complete control
Summary of the method: as §1

kochia [4] = experiment: Test A postemergence; type: in vivo, Kochia scoparia; conditions: for Plant response rating, Kochia: 0 to 100 scale, 0 no effect, 100 complete control; for Kochia plant response rating: 0 to 100 scale where 0 is no effect and 100 is complete control
Summary of the method: as §1

Italian ryegrass [5] = experiment: Test A postemergence; type: in vivo, Lolium multiflorum; conditions: for Plant response rating, Ryegrass, Italian: 0 to 100 scale, 0 no effect, 100 complete control; for Ryegrass, Italian plant response rating: 0 to 100 scale where 0 is no effect and 100 is complete control
Summary of the method: as §1

ragweed [6] = experiment: Test A preemergence; type: in vivo, Ambrosia elatior; conditions: for Plant response rating, Ragweed: 0 to 100 scale where 0 is no effect and 100 is complete control
Summary of the method: as §1

wheat = experiment: Test A postemergence; type: in vivo, Triticum aestivum; conditions: for Plant response rating, Wheat: 0 to 100 scale, 0 no effect, 100 complete control; for Wheat plant response rating: 0 to 100 scale where 0 is no effect and 100 is complete control
Summary of the method: as §1

giant foxtail [7] = experiment: Test A preemergence; type: in vivo, Setaria faberii; conditions: for Plant response rating, Foxtail, Giant: 0 to 100 scale where 0 is no effect and 100 is complete control
Summary of the method: as §1

pigweed [8] = experiment: Test A postemergence; type: in vivo, Amaranthus retroflexus; conditions: for Plant response rating, Pigweed: 0 to 100 scale, 0 no effect, 100 complete control; for Pigweed plant response rating: 0 to 100 scale where 0 is no effect and 100 is complete control
Summary of the method: as §1

corn = experiment: Test A postemergence; type: in vivo, Zea mays; conditions: for Plant response rating, Corn: 0 to 100 scale, 0 no effect, 100 complete control; for Corn plant response rating: 0 to 100 scale where 0 is no effect and 100 is complete control
Summary of the method: as §1

blackgrass = experiment: Test A postemergence; type: in vivo, Alopecurus myosuroides; conditions: for Plant response rating, Blackgrass: 0 to 100 scale, 0 no effect, 100 complete control; for Blackgrass plant response rating: 0 to 100 scale where 0 is no effect and 100 is complete control
Summary of the method: as §1

Heteranthera limosa = experiment: Test B flooded paddy test; type: in vivo; conditions: Flood, 250 g ai/ha; 0 to 100 scale where 0 is no effect and 100 is complete control
Summary of the method: (§2)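 Flooded to 3 cm at the 2-leaf stage, pots received compound through the paddy water and were kept at that depth under greenhouse conditions. After 13–15 days, effect was rated by eye relative to controls, 0 = none and 100 = complete control.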

rice = experiment: Test B flooded paddy test; type: in vivo, Oryza sativa; conditions: Flood, 250 g ai/ha; 0 to 100 scale where 0 is no effect and 100 is complete control
Summary of the method: as §2

barnyardgrass [9] = experiment: Test A postemergence; type: in vivo, Echinochloa crus-galli; conditions: for Plant response rating, Barnyardgrass: 0 to 100 scale, 0 no effect, 100 complete control; for Barnyardgrass plant response rating: 0 to 100 scale where 0 is no effect and 100 is complete control
Summary of the method: as §1

sedge, umbrella = experiment: Test B flooded paddy test; type: in vivo, Cyperus difformis; conditions: Flood, 250 g ai/ha; 0 to 100 scale where 0 is no effect and 100 is complete control
Summary of the method: as §2

barnyardgrass [10] = experiment: Test B flooded paddy test; type: in vivo, Echinochloa crus-galli; conditions: Flood, 250 g ai/ha; 0 to 100 scale where 0 is no effect and 100 is complete control
Summary of the method: as §2

barnyardgrass [11] = experiment: Test A preemergence; type: in vivo, Echinochloa crus-galli; conditions: for Plant response rating, Barnyardgrass: 0 to 100 scale where 0 is no effect and 100 is complete control
Summary of the method: as §1

kochia [12] = experiment: Test A preemergence; type: in vivo, Kochia scoparia; conditions: for Plant response rating, Kochia: 0 to 100 scale where 0 is no effect and 100 is complete control
Summary of the method: as §1

pigweed [13] = experiment: Test A preemergence; type: in vivo, Amaranthus retroflexus; conditions: for Plant response rating, Pigweed: 0 to 100 scale where 0 is no effect and 100 is complete control
Summary of the method: as §1

galium = experiment: Test A postemergence; type: in vivo, Galium aparine; conditions: for Plant response rating, Galium: 0 to 100 scale, 0 no effect, 100 complete control; for Galium plant response rating: 0 to 100 scale where 0 is no effect and 100 is complete control
Summary of the method: as §1

[14] = 31 g ai/ha, visual, approximately 10 days

SMILES | Plant response rating, Ragweed (ragweed [1]; 31 g ai/ha) | Plant response rating, Ryegrass, Italian (Italian ryegrass [2]; [14]) | Plant response rating, Foxtail, Giant (giant foxtail [3]; 31 g ai/ha) | Plant response rating, Kochia (kochia [4]; 31 g ai/ha) | Plant response rating, Ryegrass, Italian (Italian ryegrass [5]; 31 g ai/ha) | Plant response rating, Ragweed (ragweed [6]; [14]) | Plant response rating, Wheat (wheat; 31 g ai/ha) | Plant response rating, Foxtail, Giant (giant foxtail [7]; [14]) | Plant response rating, Pigweed (pigweed [8]; 31 g ai/ha) | Plant response rating, Corn (corn; 31 g ai/ha) | Plant response rating, Blackgrass (blackgrass; 31 g ai/ha) | Plant response rating, Ducksalad (Heteranthera limosa) | Plant response rating, Rice (rice) | Plant response rating, Barnyardgrass (barnyardgrass [9]; 31 g ai/ha) | Plant response rating, Sedge, Umbrella (sedge, umbrella) | Plant response rating, Barnyardgrass (barnyardgrass [10]) | Plant response rating, Barnyardgrass (barnyardgrass [11]; [14]) | Plant response rating, Kochia (kochia [12]; [14]) | Plant response rating, Pigweed (pigweed [13]; [14]) | Plant response rating, Galium (galium; 31 g ai/ha) | further results
CC(C)Oc1cnn(-c2c(C#N)cccc2Oc2ncc(F)cn2)c1 [Compound 158] | 60 | 30 | 20 | 60 | 20 | 40 | 0 | 60 | 40 | 0 | 50 | 50 | 40 | 20 | 0 | 0 | 10 | 50 | 50 | 60 | Ragweed plant response rating (ragweed [1]; 125 g ai/ha): 80; Plant response rating, Ryegrass, Italian (Italian ryegrass [2]; 125 g ai/ha): 50; Foxtail, Giant plant response rating (giant foxtail [3]; 125 g ai/ha): 70; Kochia plant response rating (kochia [4]; 125 g ai/ha): 80; Ryegrass, Italian plant response rating (Italian ryegrass [5]; 125 g ai/ha): 50; Plant response rating, Ragweed (ragweed [6]; 125 g ai/ha): 80; Wheat plant response rating (wheat; 125 g ai/ha): 0; Plant response rating, Foxtail, Giant (giant foxtail [7]; 125 g ai/ha): 90; Pigweed plant response rating (pigweed [8]; 125 g ai/ha): 50; Corn plant response rating (corn; 125 g ai/ha): 30; Blackgrass plant response rating (blackgrass; 125 g ai/ha): 60; Barnyardgrass plant response rating (barnyardgrass [9]; 125 g ai/ha): 80; Plant response rating, Barnyardgrass (barnyardgrass [11]; 125 g ai/ha): 70; Plant response rating, Kochia (kochia [12]; 125 g ai/ha): 70; Plant response rating, Pigweed (pigweed [13]; 125 g ai/ha): 70; Galium plant response rating (galium; 125 g ai/ha): 100
NC(=O)c1cccc(Oc2ncc(Cl)cn2)c1-n1cc(C(F)(F)F)cn1 [Compound 278] | 0 | 0 | 0 | 0 | 0 | 0 | 0 | 0 | 0 | 0 | 0 | 0 | 0 | 0 | 0 | 0 | 0 | 0 | 0 | 0 | Plant response rating, Ragweed (ragweed [1]; 125 g ai/ha): 10; Ryegrass, Italian plant response rating (0 to 100 scale) (Italian ryegrass [2]; 125 g ai/ha): 0; Plant response rating, Foxtail, Giant (giant foxtail [3]; 125 g ai/ha): 0; Plant response rating, Kochia (kochia [4]; 125 g ai/ha): 0; Plant response rating, Ryegrass, Italian (Italian ryegrass [5]; 125 g ai/ha): 0; Ragweed plant response rating (0 to 100 scale) (ragweed [6]; 125 g ai/ha): 0; Plant response rating, Wheat (wheat; 125 g ai/ha): 0; Foxtail, Giant plant response rating (0 to 100 scale) (giant foxtail [7]; 125 g ai/ha): 0; Plant response rating, Pigweed (pigweed [8]; 125 g ai/ha): 10; Plant response rating, Corn (corn; 125 g ai/ha): 0; Plant response rating, Blackgrass (blackgrass; 125 g ai/ha): 0; Plant response rating, Barnyardgrass (barnyardgrass [9]; 125 g ai/ha): 0; Barnyardgrass plant response rating (0 to 100 scale, 0 is no effect, 100 is complete control) (barnyardgrass [11]; 125 g ai/ha): 0; Kochia plant response rating (0 to 100 scale) (kochia [12]; 125 g ai/ha): 0; Pigweed plant response rating (0 to 100 scale) (pigweed [13]; 125 g ai/ha): 10; Plant response rating, Galium (galium; 125 g ai/ha): 10
CC(C)Oc1cnn(-c2c(Br)cccc2Oc2ncc(F)cn2)c1 [Compound 156] | 0 | 0 | 0 | 0 | 0 | 0 | 0 | 0 | 10 | 0 | 0 | 0 | 0 | 0 | 0 | 0 | 0 | 0 | 0 | 20 | Ragweed plant response rating (ragweed [1]; 125 g ai/ha): 40; Plant response rating, Ryegrass, Italian (Italian ryegrass [2]; 125 g ai/ha): 0; Foxtail, Giant plant response rating (giant foxtail [3]; 125 g ai/ha): 10; Kochia plant response rating (kochia [4]; 125 g ai/ha): 40; Ryegrass, Italian plant response rating (Italian ryegrass [5]; 125 g ai/ha): 0; Plant response rating, Ragweed (ragweed [6]; 125 g ai/ha): 0; Wheat plant response rating (wheat; 125 g ai/ha): 0; Plant response rating, Foxtail, Giant (giant foxtail [7]; 125 g ai/ha): 70; Pigweed plant response rating (pigweed [8]; 125 g ai/ha): 20; Corn plant response rating (corn; 125 g ai/ha): 10; Blackgrass plant response rating (blackgrass; 125 g ai/ha): 20; Barnyardgrass plant response rating (barnyardgrass [9]; 125 g ai/ha): 10; Plant response rating, Barnyardgrass (barnyardgrass [11]; 125 g ai/ha): 30; Plant response rating, Kochia (kochia [12]; 125 g ai/ha): 10; Plant response rating, Pigweed (pigweed [13]; 125 g ai/ha): 0; Galium plant response rating (galium; 125 g ai/ha): 30
